Assay results as given in patent publication US20230203017A1, “Protein Kinase C Beta Inhibitors and Uses Thereof” (priority 2021, published 2023).
Entries after “also recorded” stand apart in the source; their conditions may differ. Counter-ions that a name gives are not always drawn.

Legend:
[1] = test system: PKCβ activation of SREBP-1c; assay: SREBP-1c transactivation, Gal4-luciferase reporter with constitutively active PKCβ in HepG2 cells; assay type: cell-based, human; settings: LY333,531 5 μM, PD98059 20 μM, GSK690693 1 μM
Procedure: (Gal4)5-luciferase reporter plasmid (0.6 μg) was co-transfected with a plasmid encoding either Gal4-DNA binding region (Gal4-DBD) or activation domain of SREBP-1 c linked to Gal4-DNA binding domain (Gal4-DBD-SREBP-1AD) (0.3 μg) (23) and pCMV-8-galactosidase (0.1 μg), along with constitutively active PKCβ cDNA (0.1 μg), in human hepatoma HepG2 cells in the absence or presence of LY333,531 (5 μM), PD98059 (20 μM) or GSK690693 (1 μM). Fold induction represens luciferase activity on PKCβ transfection relative to basal expression level in the absence of PKCβ expression vector (taken as 1). Luciferase activity was normalized to β-galactosidase activity.
To determine whether PKCβ deficiency affected the activation of hepatic SREBP-1c, a plasmid was used in which activation domain of SREBP-1c is fused to the Gal4-DBD and evaluated the activation of a Gal4-responsive reporter plasmid by overexpressed PKCβ in the absence or presence of indicated inhibitor.

[2] = test system: C57BL6 mouse model fed HFD or HFHC diet; assay: Efficacy of PKCβ inhibitors on diet-induced obesity and hepatic steatosis in C57BL6 mice; assay type: in vivo; settings: for weight gain, intraperitoneal administration / weight gain, oral administration: mice on high fat diet; for weight gain, intraperitoneal administration: i.p. (FIG. 12C); for weight gain, oral administration: oral gavage (FIG. 12D); for liver TG levels: diet-fed mice (FIGS. 12H, 12I)
Procedure: FIG. 12E compares food intake in mice fed HFD for and the indicated PKCb inhibitor was administered by i.p. FIG. 12F compares food intake in mice fed HFD and the indicated PKCb inhibitor was administered orally by gavage.
To test and compare therapeutic efficacy of these inhibitors, the following experiment was set up in a C57BL6 mouse model (20 animals per study). C57BL6 mice (7 week old male mice) were fed either HFD or HFHC diet and were either untreated or treated on the same day with an indicated PKCb inhibitor. The PKCb inhibitor was administered to these mice either by i.p. or oral gavage.
The inhibitors were administered by i.p. (FIG. 12C) or gavage (FIG. 12D).

[3] = molecular target: Recombinant PKCβ (Homo sapiens, UniProt P05771); assay: PKCb assay: phosphorylation of Histone H3 (Ser10) by recombinant PKCβ, immunoblot, no lipid activator; assay type: biochemical; settings: basal PKCb, lipid activator not included; P-Ser10-Histone H3 by immunoblotting, 30° C., 6 minutes
Recombinant PKCβ, sequence (P05771 whole entry, species assumed): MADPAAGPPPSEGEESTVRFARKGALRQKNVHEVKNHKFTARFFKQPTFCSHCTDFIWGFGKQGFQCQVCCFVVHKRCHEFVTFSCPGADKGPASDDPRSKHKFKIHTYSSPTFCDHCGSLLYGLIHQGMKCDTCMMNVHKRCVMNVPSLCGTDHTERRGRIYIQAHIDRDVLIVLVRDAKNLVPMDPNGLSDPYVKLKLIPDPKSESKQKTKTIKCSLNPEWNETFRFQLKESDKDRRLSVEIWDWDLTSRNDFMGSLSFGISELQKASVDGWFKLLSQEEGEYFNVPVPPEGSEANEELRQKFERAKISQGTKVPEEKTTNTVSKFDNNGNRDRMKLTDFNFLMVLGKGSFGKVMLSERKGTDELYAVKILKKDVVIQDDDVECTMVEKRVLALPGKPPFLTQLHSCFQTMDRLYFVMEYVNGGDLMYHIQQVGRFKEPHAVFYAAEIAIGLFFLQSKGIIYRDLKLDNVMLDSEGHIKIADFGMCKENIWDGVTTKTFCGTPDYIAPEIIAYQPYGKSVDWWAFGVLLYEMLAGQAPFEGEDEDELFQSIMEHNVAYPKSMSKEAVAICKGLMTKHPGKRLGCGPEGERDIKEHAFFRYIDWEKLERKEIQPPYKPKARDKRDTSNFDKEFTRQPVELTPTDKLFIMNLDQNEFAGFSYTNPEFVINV
Procedure: Recombinant PKCβ (11ng) was mixed with purified Histone H3 (20 ng) and incubated at 30° C. for 6 minutes and phosphorylated Histone H3 (P^ser10-Histone H3) assessed by immunoblotting using specific antibodies (FIG. 11). Lipid activator was not included our assay because we were interested in finding chemicals inhibiting PKCb in its basal state.

| SMILES | activation of SREBP-1c plasmid by overexpressed PKCβ in presence of inhibitor [1] | weight gain, intraperitoneal administration [2] | weight gain, oral administration [2] | IC50 [3] | liver TG levels [2] | diet-induced obesity ([2]; mice (FIG. 12G)) |
| --- | --- | --- | --- | --- | --- | --- |
| CN(C)C[C@@H]1CCn2cc(c3ccccc32)C2=C(C(=O)NC2=O)c2cn(c3ccccc23)CCO1 [LY333531, Ruboxistaurin hydrochloride, reference compound] | this activation was blocked | reduction in weight gain | caused an increase in weight gain |  |  |  |
| N#CCCCCCn1cc(C2=C(c3cn(CCCCCC#N)c4ccccc34)C(=O)NC2=O)c2ccccc21 [INST3399] |  | reduction in weight gain | caused an increase in weight gain; also recorded: greater weight gain relative to LY333531 | 50 nM | reduces liver TG levels |  |
| Cn1cc(-c2c(-c3c[nH]c4ccccc34)[nH][nH]c2=O)c2ccccc21 [INST5660] |  |  |  | 10 nM | reducing diet-induced liver triglyceride level | reducing diet-induced obesity |
